Test results from patent publication US20230218618A1, “ADMINISTRATION OF SUMO-ACTIVATING ENZYME INHIBITOR AND ANTI-CD38 ANTIBODIES” (MILLENNIUM PHARMACEUTICALS, INC., priority 2020, published 2023).

Experiments:
[1] = system: MOLP-8 human multiple myeloma cell line; assay: Study 4: MOLP-8 xenograft human multiple myeloma subcutaneous tumor model; type: in vivo, SCID mice; conditions: for Tumor growth compared to vehicle (pairwise comparison): I-263a 7.5 mg/kg BIW 2 weeks (p < 0.05 as printed), daratumumab 2.5, 7.5 or 20 mg/kg (p < 0.01; p < 0.01; p < 0.001), I-263a with daratumumab 2.5, 7.5 or 20 mg/kg (p < 0.001); for GRI%: vs vehicle
Procedure: (§1) Low tumor volumes can cause problems with the data analysis, so all measurements below 25 cubic mm (including 0 values) were excluded from the analysis. After this exclusion step, the tumor volume was assumed to follow an exponential growth model. More specifically, for a given animal and treatment group,
(§2) Pairwise comparisons were performed, where the mean growth rates were compared for various pairs of treatment conditions. The results were summarized using the growth rate inhibition (GRI). Suppose µT and µC are the mean tumor growth rates for the treatment and reference groups, respectively. Define
(§3) Here, µAB, µA, µB, and µControl are the mean growth rates for the combination, drug A, drug B, and control groups, respectively. As before, µv is the mean tumor growth rate for the vehicle group, which in most cases is the same as the control group. The standard error of the synergy score was calculated as the square root of the sum of squared standard errors across the four groups. The degrees of freedom were estimated using the Welch-Satterthwaite equation. A hypothesis test was performed to determine if the synergy score differed from 0. P-values were calculated by dividing the synergy score by its standard error and tested against a t-distribution (two-tailed) with the above-calculated degrees of freedom. A P value of less than 0.05 is statistically significant.
(§4) The combination results can be interpreted as follows. Statistically significant negative synergy scores indicate a synergistic combination (“Syn.”). Statistically significant positive synergy scores indicate a sub-additive combination (“Sub-add.”) when the combination performs better (i.e. has a lower growth rate) than the best performing single agent. Statistically significant positive synergy scores indicate an antagonistic combination (“Antag.”) when the combination performs worse than the best performing single agent. Scores that are not statistically significant should be considered additive (“Add.”).
MOLP-8 is a human multiple myeloma cell line. A MOLP-8 human xenograft tumor model was generated by subcutaneous inoculation with 4.0 × 10^6 MOLP-8 cells (cell suspension) in 14 weeks old female SCID mice (Vital River Laboratory Animal Technology Co., Ltd, Beijing, China) in the flank. When the mean tumor volume reached approximately 170 mm^3, the animals were randomized into one vehicle control and seven treatment groups (n=8/group). Mice were then dosed with 20% HPβCD or Compound I-263a or daratumumab over a 14-day period. Tumor growth and body weight were measured twice per week during the treatment and post-treatment periods, and mice were humanely euthanized once they had reached their humane endpoint.
A 0.75 mg/mL stock solution of I-263a was formulated weekly in 20% HPβCD and administered IV based on exact animal body weight on each day of treatment, using a dosing volume of 10 mL/kg body weight. Final dose I-263a received was 7.5 mg/kg. I-263a was administered on a BIW schedule for 2 weeks (Days 1, 4, 8, and 11). Daratumumab (anti-CD38 antibody) (Janssen Biotech, Inc., Horsham, PA) was stored at 4° C. according to manufacturer’s instructions. Final dose daratumumab received was 2.5 mg/kg, 7.5 mg/kg, and 20 mg/kg based on exact animal body weight on each day of treatment, using a dosing volume of 10 mL/kg body weight. Daratumumab was administered intraperitoneally (IP) using a 0.1 mL dosing volume, on a BIW schedule for 2 weeks (Days 1, 4, 8, and 11).
(§5) Tumors were measured twice weekly using Vernier calipers. Tumor volumes were calculated using standard equation: V = W^2 × L/2, where V = volume, W = width, and L = length for the tumor. When mean tumor volumes reached approximately 170 mm^3, mice were randomized into control and treatment groups. Mice were randomized into 8 groups (n=8/group) and dosed with vehicle (20% HPβCD), I-263a, daratumumab, or the combination of I-263a plus daratumumab at doses and schedules as described above. […]

[2] = system: SUMO-activating enzyme and SUMOylation; assay: Inhibition of SUMO-activating enzyme and SUMOylation in cultured tumor cell lines; type: cell-based; conditions: cultured mouse and human tumor cell lines
[3] = system: Daudi human Burkitt’s Lymphoma cell line; assay: Study 1: Daudi xenograft human Burkitt's lymphoma subcutaneous tumor model; type: in vivo, CB17 SCID mice; conditions: for GRI%: vs vehicle; for Tumor growth relative to vehicle-treated tumors (pairwise comparison): I-263a 7.5 mg/kg BIW, daratumumab 7.5 mg/kg BIW or both, data up to Day 22, p < 0.001
Procedure: as §1, §2, §3, §4
Daudi is a human Burkitt’s Lymphoma cell line. A Daudi human xenograft tumor model was generated by subcutaneous inoculation with 2.0 […] 10^6 Daudi cells (cell suspension) in 6 weeks old female CB17 SCID mice (Charles River Laboratories, 251 Ballardvale St., Wilmington, MA) in the flank. When the mean tumor volume reached approximately 120 mm^3, the animals were randomized into one vehicle control and three treatment groups (n=8/group). Mice were then dosed with 20% HPβCD or Compound I-263a and/or daratumumab over a 21-day period. Tumor growth and body weight were measured twice per week during the treatment and post-treatment periods, and mice were humanely euthanized once they had reached their humane endpoint.
A 1.725 mg/mL and a 0.862 mg/mL stock solution of I-263a was formulated weekly in 20% HPβCD and administered intravenously (IV) based on an average body weight using a 0.2 mL dosing volume. Final doses I-263a received were 7.5 mg/kg. I-263a was administered on a BIW schedule for 3 weeks (Days 1, 4, 8, 11, 15, and 18). Daratumumab (anti-CD38 antibody) (Myoderm Medical Supplies, 48 E Main St., Norristown, PA 19401) was purchased at the beginning of the study and stored at 4° C. according to manufacturer’s instructions. Final dose daratumumab received was 7.5 mg/kg based on average body weight. Daratumumab was administered intraperitoneally (IP) using a 0.1 mL dosing volume, on a BIW schedule for 3 weeks (Days, 1, 4, 8, 11, 15, and 18).
as §5, with “W^2 x” for “W^2 ×”, “approximately 120” for “approximately 170”, “into 4” for “into 8”, “schedules” for “schedules as”

SUMO-activating enzyme = SUMO-activating enzyme (Homo sapiens, UniProt Q9UBT2); assay: Biochemical assays of SUMO-activating enzyme inhibition
Chain of SUMO-activating enzyme (Q9UBT2 whole entry): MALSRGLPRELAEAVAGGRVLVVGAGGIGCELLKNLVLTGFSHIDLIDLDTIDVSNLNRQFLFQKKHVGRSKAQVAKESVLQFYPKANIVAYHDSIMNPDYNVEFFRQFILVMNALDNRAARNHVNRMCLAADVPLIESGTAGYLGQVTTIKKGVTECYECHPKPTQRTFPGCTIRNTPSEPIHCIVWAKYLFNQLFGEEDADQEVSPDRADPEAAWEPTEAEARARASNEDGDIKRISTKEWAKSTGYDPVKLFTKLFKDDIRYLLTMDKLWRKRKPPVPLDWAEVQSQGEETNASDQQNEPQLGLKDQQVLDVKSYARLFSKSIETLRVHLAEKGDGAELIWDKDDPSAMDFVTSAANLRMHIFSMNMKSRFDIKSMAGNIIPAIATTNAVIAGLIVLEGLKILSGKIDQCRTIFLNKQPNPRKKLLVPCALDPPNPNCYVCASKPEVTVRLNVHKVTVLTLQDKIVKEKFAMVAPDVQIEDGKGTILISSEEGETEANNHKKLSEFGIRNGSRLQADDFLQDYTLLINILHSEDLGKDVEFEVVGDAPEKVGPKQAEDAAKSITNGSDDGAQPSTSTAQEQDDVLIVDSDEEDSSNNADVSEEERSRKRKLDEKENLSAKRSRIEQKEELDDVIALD
Chain of SUMO-activating enzyme (Q9UBE0 whole entry partner): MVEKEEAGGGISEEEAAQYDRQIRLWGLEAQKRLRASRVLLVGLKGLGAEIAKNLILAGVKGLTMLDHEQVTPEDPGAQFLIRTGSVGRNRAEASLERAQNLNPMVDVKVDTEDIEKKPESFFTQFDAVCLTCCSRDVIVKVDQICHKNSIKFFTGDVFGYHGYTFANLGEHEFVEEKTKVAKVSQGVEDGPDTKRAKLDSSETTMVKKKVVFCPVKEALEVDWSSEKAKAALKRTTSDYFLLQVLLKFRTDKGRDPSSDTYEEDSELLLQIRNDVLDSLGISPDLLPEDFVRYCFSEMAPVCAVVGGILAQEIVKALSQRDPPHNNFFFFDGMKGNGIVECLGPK
Chain of SUMO-activating enzyme (P63165 1-97 partner limits assumed): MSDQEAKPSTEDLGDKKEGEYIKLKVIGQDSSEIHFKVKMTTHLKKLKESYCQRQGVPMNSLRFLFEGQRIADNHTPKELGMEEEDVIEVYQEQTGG

| Inhibition of SUMO-activating enzyme activity (SUMO-activating enzyme; mechanism-based inhibitor forming a covalent adduct with SUMO) | Selectivity for SUMO-activating enzyme (SUMO-activating enzyme; over ubiquitin-activating enzyme, Nedd8-activating enzyme, and autophagy related 7 enzyme) | Molecule | Tumor growth compared to vehicle (pairwise comparison) [1] | Tumor volume on Day 14 (± SEM) ([1]; I-263a 7.5 mg/kg BIW IV) | GRI% ([1]; I-263a 7.5 mg/kg BIW IV) | Inhibition of SUMO-activating enzyme and SUMOylation in cells [2] | Tumor Volume on Day 22 (±SEM) ([3]; I-263a 7.5 mg/kg BIW IV) | GRI% ([3]; I-263a 7.5 mg/kg BIW IV) | Tumor growth relative to vehicle-treated tumors (pairwise comparison) [3] | Tumor volume on Day 14 (± SEM) ([1]; Daratumumab 2.5 mg/kg BIW IP) | GRI% ([1]; Daratumumab 2.5 mg/kg BIW IP) | Tumor volume on Day 14 (± SEM) ([1]; Daratumumab 7.5 mg/kg BIW IP) | GRI% ([1]; Daratumumab 7.5 mg/kg BIW IP) | Tumor volume on Day 14 (± SEM) ([1]; Daratumumab 20 mg/kg BIW IP) | GRI% ([1]; Daratumumab 20 mg/kg BIW IP) | Tumor Volume on Day 22 (±SEM) ([3]; Daratumumab 7.5 mg/kg BIW IP) | GRI% ([3]; Daratumumab 7.5 mg/kg BIW IP) |
| --- | --- | --- | --- | --- | --- | --- | --- | --- | --- | --- | --- | --- | --- | --- | --- | --- | --- |
| potently inhibits enzyme activity | Strong selectivity | Cc1sc(C(=O)c2cncnc2N[C@@H]2C[C@H](COS(N)(=O)=O)[C@@H](O)C2)cc1[C@@H]1NCCc2ccc(Cl)cc21 [Compound I-263a, [(1R,2S,4R)-4-{[5-({4-[(1R)-7-chloro-1,2,3,4-tetrahydroisoquinolin-1-yl]-5-methyl-2-thienyl}carbonyl)pyrimidin-4-yl]amino}-2-hydroxycyclopentyl]methyl sulfamate] | not significantly different | 2500.8 ± 106.6 | 3% | Selective and potent inhibition | 1509.4 ± 109.1 | 15% | tumor growth inhibition | – | – | – | – | – | – | – | – |
| – | – | Daratumumab: immunoglobulin G1 kappa (IgG1κ) human monoclonal antibody against CD38 antigen | significantly inhibited growth curves | – | – | – | – | – | tumor growth inhibition | 2047.4 ± 83.4 | 11% | 1653 ± 158.5 | 20% | 1250.6 ± 108.6 | 28% | 1043.9 ± 159.1 | 29% |
